# Test results reported in patent US20260217682A1, “STILBENE COMPOUND AND PREPARATION METHOD THEREFOR AND USE THEREOF” (THE HONG KONG UNIVERSITY OF SCIENCE AND TECHNOLOGY, priority 2022, published 2026).
# Tested on: human HaCaT cells
# Assay: Cytotoxicity assay (MTT colorimetric assay)
# Format: cell-based
# Details: 0.3-100 μM, 48 hours of treatment
# Experimental: HaCaT cells were inoculated at a density of 5.0×10^3 cells/mL in a 96-well culture plate, with 100 μL per well. […] After 48 hours of treatment, 10 μL of MTT solution was added to each well, and the cells were incubated at 37° C. for an additional 4 hours. The culture was then terminated, the supernatant was discarded, and 150 μL of DMSO was added to each well. The plate was shaken for 10 minutes for full dissolution. The absorbance (OD) of each well was measured at 490 nm using an ELISA reader. The wells without drug treatment served as controls, and cell viability was calculated using the formula: Cell viability
structure (smiles),measurement,value
Oc1ccc(C=Cc2cc(O)cc(O)c2)cc1 [resveratrol],cytotoxicity (cell viability),neither compound RE-1 nor resveratrol exhibited significant cytotoxicity
